Reference: patent publication US20160081338A1, “PLANT GROWTH ACCELERATOR” (Nippon Soda Co., Ltd., priority 2012, published 2016)

Assays:
[1] = tested on: cucumber (Variety:Sagamihanjiro-fushinari); assay: Test on acceleration of growth of aboveground/underground part of cucumber and effect of growing vigourous seedlings; type: in vivo; conditions: after 7 days, dilution 708, active ingredient 250 ppm
Procedure: Seedling-raising culture soil for gardening was placed in a 12 -cm-by-20 -cm plastic pot 10 cm in depth, and 5 seeds of cucumber (Variety:Sagamihanjiro-fushinari) were sown in the soil. Thereinto was uniformly irrigated 500 ml of each chemical solution prepared in Example 1 or Comparative Example 1. Water was used in place of each chemical solution in the non-treatment plots. Each plot has 3 replications. The above-ground and underground parts of the seedlings germinated and grown after 7 days were measured for length. The ratio (%) of the average value in each treatment plot to the average value in the non-treatment plot was calculated.

[2] = tested on: rice seeds (variety: Koshihikari); assay: Test on acceleration of rice root growth and effect of growing vigourous seedlings; type: in vivo; conditions: for Seminal Root Length: paper filter, 25° C.
Procedure: A paper filter was spread in a plastic cup and impregnated with 10 ml of each of the chemical solutions prepared in Example 1 or Comparative Example 1. In non-treatment, water was used in place of the chemical solutions. In treatment plots, 1 replication was provided for each concentration; in the non-treatment plots, 2 replications were provided. Ten rice seeds (variety: Koshihikari) were sown on each plot of the paper filter and cultivated in a growth chamber at 25° C., and the length of roots was measured after 5 and 7 days. The average of measured values excluding the maximum and minimum values was calculated. The ratio (%) of the average value in each treatment plot to the average value in the non-treatment plots was calculated.

[3] = After 5 Days, dilution 708, active ingredient 250 ppm
[4] = After 5 Days, dilution 2832, active ingredient 62.5 ppm
[5] = After 5 Days, dilution 11328, active ingredient 15.6 ppm
[6] = After 7 Days, dilution 2832, active ingredient 62.5 ppm
[7] = After 7 Days, dilution 11328, active ingredient 15.6 ppm

**Q.** What does the source list for `Cc1c(Br)c2ccc(F)cc2n1S(=O)(=O)c1ncn(S(=O)(=O)N(C)C)n1` [Amisulbrom, 3-(3-bromo-6-fluoro-2-methylindol-1-ylsulfonyl)-N,N-dimethyl-1H-1,2,4-triazole-1-sulfonamide]?
**A.** Above-ground Part Length To Non-treatment [1]: 108%; Under-ground Part Length To Non-treatment [1]: 117%; Above-ground Part Length ([1]; 500 ml irrigated into soil): 2.2 cm; Under-ground Part Length ([1]; 500 ml irrigated into soil): 4.3 cm; Seminal Root Length To Non-treatment [2, 3]: 120%; Seminal Root Length [2, 3]: 2.46 cm; Seminal Root Length To Non-treatment [2, 4]: 139%; Seminal Root Length [2, 4]: 2.85 cm; Seminal Root Length To Non-treatment [2, 5]: 129%; Seminal Root Length [2, 5]: 2.65 cm; Seminal Root Length ([2]; After 7 Days, dilution 708, active ingredient 250 ppm): 2.91 cm; Seminal Root Length To Non-treatment [2, 6]: 176%; Seminal Root Length [2, 6]: 4.04 cm; Seminal Root Length To Non-treatment [2, 7]: 154%; Seminal Root Length [2, 7]: 3.53 cm; Seminal Root Length To Non-treatment ([2]; after 7 days, dilution 708, active ingredient 250 ppm): 127%
